For series [1] the following is noted: Scaled Parameters = (Raw Parameters + 2.061)/4.484; cited from earlier work.
A further series deals with C57Bl/6 mice. The series can be described thus: Safety and TG elevating effects after IP injection in C57Bl/6 mice (plasma CPK, ALT, AST, lipids). Format: in vivo. To be noted: for muscle toxicity (plasma CPK activity) / cytotoxic/toxic response (plasma CPK, ALT, AST): plasma 4 h after injection. As for the experimental part:
The high-dose cytotoxic response of ATI-5261 observed in rat, rabbit and cynomolgus monkey is additionally recapitulated in mice (FIG. 4). Male chow-fed C57bl/6 mice were injected intraperitonelly (IP) with 30 or 300 mg/kg of lipid-fee ATI-5261. Blood was collected via the retro-orbital plexus 4 h after peptide injection and plasma subsequently obtained for measurement of CPK (Panel A) and ALT and AST activities (Panel B, ALT left bars; AST, right bars). Values are means±SD, n=4 mice per group.
This example illustrates that aromatic phenylalanine residues associated with the non-polar surface of ATI-5261 contributed to the majority of the peptide toxicity (FIG. 5). […] Blood was collected via retro-orbital plexus 4 h after injection for isolation of plasma. Levels of plasma CPK (Panel A), ALT (panel B) and AST (Panel C) were determined as described in FIG. 1. Values are means±SD, n=4 mice per group.
All values (mg/dl) are means±SD, n=4, determined at 4 and 6 h post treatment with peptide.

Series [2] deals with T1, ABCA1 (Mus musculus, UniProt P41233).
T1 construct: treated (18 h) with a cAMP analog to induce ABCA1 protein expression; endogenous in cells; host or cells: J774 macrophages
Briefly: ABCA1-dependent [3H]cholesterol efflux from J774 macrophages with and without cAMP. It is filed as cell-based. To be noted: cAMP treated J774 cells; for efficiency of stimulating cholesterol efflux (concentration dependence): dose response; for Km for cholesterol efflux / peptide concentration at saturation in cholesterol efflux: increasing concentration of peptides, 4 h. The source says:
Suitable cholesterol efflux assays are described in, e.g., Bielicki, J. K and Oda, M. N., Biochemistry, 41:2089-2096 (2002); Jia et al., Biochem. Biophys. Res. Common., 297:206-213 (2002). In some embodiments, a polypeptide known to mediate cholesterol efflux (e.g., helix 9/10 of Apo A-I) is used to screen for additional mediators of cholesterol efflux in a cell based assay. For example, cell lines in which cholesterol efflux can be enhanced using a cAMP analog that up-regulates ABCA1 protein expression (e.g., J774 macrophages) can conveniently be used to assess the ability of a polypeptide of the present invention to mediate cholesterol efflux. The cells are incubated with labeled cholesterol (e.g., [^3H]cholesterol) under conditions appropriate for cholesterol uptake by the cells. Thus, cAMP or cAMP analogs (e.g., CPT-cAMP) are incubated with the cells for a suitable time before the initiation of cellular cholesterol efflux, i.e., prior to contacting the cells with a test polypeptide. Measurement of labeled cholesterol appearing in the medium is used to determine the cholesterol efflux mediating activity of the test polypeptide.
Aliphatic analogs of ATI-5261 lacking phenylalanine residues retained potent ABCA1 selective cholesterol efflux activity (FIG. 7). J774 macrophages were labeled (48 h) with [^3H]cholesterol and treated (18 h) with a cAMP analog to induce ABCA1 protein expression; cells incubated in the absence of cAMP (left bars) served as controls. […] Peptides were used at a concentration of 30 μg/ml, which was maximal for promoting cholesterol efflux activity. Panel B—Dependence of cholesterol efflux on the concentration of peptides. […] Results are expressed as the difference in cholesterol efflux (%/4 h) observed using cAMP treated vs. non-treated J774 cells. Values are means±SD, n=3.

In series [3] the target is T1, ABCA1. Described as above. Format: cell-based. Also noted: ABCA1-dependent cholesterol efflux: dose or concentration left out as unconfirmed. As to conditions: for ABCA1-dependent cholesterol efflux: J774 with/without cAMP, acceptors lipid-free, 4 h.
Setting [4] is: male chow-fed C57Bl/6 mice, IP 300 mg/kg.

Non-standard residues stand in square brackets, D forms with d. Residues, ends and D or L forms follow the SMILES beside them. No end group written: not given here. Cit = NC(=O)NCCC[C@H](N)C(=O)O

T1 sequence (P41233 whole entry): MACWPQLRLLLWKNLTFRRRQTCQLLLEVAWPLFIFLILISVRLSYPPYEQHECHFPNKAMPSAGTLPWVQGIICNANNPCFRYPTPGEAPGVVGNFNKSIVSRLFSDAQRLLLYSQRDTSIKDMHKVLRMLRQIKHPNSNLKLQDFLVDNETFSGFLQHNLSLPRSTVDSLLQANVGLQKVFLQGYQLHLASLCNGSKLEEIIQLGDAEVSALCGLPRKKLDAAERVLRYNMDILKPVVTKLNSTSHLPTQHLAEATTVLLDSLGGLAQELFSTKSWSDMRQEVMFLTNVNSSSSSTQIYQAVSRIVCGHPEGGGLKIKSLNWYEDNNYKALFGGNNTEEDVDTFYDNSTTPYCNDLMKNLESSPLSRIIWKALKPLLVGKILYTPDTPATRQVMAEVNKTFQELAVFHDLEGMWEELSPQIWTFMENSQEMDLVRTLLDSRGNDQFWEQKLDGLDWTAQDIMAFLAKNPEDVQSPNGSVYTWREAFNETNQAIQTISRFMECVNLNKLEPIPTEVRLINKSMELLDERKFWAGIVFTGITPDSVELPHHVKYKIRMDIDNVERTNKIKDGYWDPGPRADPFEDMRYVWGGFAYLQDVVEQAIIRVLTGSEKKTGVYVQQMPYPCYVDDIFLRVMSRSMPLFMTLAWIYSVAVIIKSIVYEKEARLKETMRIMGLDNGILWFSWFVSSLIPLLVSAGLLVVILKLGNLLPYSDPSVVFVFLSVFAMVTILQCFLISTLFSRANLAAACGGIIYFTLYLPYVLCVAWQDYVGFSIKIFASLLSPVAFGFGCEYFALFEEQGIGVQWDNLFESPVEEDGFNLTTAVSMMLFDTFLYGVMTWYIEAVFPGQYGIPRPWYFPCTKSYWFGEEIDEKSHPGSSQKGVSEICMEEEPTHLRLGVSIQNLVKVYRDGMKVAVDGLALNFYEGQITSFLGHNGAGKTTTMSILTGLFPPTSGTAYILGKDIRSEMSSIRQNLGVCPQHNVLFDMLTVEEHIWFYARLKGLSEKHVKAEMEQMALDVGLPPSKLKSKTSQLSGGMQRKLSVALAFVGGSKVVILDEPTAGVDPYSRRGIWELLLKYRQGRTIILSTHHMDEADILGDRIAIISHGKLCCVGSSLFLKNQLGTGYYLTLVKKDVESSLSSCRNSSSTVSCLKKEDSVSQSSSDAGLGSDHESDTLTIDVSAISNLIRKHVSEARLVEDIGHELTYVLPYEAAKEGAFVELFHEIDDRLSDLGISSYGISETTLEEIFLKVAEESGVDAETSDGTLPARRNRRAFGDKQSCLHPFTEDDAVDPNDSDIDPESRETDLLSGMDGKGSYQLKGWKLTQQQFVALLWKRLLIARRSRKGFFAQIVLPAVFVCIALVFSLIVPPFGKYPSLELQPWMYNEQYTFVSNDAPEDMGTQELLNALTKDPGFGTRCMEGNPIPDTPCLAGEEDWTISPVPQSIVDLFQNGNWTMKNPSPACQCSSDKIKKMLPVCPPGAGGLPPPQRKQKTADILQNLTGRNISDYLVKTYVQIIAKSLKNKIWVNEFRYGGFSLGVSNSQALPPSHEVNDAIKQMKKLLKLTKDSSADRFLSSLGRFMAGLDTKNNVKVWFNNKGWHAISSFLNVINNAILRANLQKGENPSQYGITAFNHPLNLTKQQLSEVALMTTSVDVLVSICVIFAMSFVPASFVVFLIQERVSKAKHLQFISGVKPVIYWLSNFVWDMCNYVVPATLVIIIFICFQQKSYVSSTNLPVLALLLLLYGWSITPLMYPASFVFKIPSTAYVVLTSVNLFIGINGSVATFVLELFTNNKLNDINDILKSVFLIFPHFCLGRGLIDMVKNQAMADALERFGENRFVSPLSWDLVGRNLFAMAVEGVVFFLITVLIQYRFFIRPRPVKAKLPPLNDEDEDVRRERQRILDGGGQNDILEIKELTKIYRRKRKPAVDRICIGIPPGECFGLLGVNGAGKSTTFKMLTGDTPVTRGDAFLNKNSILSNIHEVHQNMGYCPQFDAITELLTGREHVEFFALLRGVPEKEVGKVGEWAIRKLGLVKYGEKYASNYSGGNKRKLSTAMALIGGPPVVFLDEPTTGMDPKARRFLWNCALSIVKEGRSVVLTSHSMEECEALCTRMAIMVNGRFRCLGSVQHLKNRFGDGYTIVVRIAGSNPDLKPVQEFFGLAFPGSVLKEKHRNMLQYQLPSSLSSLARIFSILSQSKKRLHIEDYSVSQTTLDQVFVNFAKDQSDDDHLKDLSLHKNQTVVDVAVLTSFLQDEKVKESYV

Take `C[C@H](N)C(=O)O` [Alanine]: the “Hydrophobicity (scaled computational log(P))” value in series [1] is given as 0.616.

For the molecule `N=C(N)NCCC[C@H](N)C(=O)O` [Arginine], the “Hydrophobicity (scaled computational log(P))” value in series [1] is 0.000.

On to `NC(=O)C[C@H](N)C(=O)O` [Asparagine], for which the “Hydrophobicity (scaled computational log(P))” value in series [1] is 0.236.

With `N[C@@H](CCC(=O)O)C(=O)O` [Glutamate], the “Hydrophobicity (scaled computational log(P))” value in series [1] is 0.043.

In the case of `NCC(=O)O` [Glycine], in series [1], the “Hydrophobicity (scaled computational log(P))” value is 0.501.

For `N[C@@H](Cc1c[nH]cn1)C(=O)O` [Histidine], the “Hydrophobicity (scaled computational log(P))” value in series [1] was 0.165.

With `CC[C@H](C)[C@H](N)C(=O)O` [Isoleucine], in series [1], the “Hydrophobicity (scaled computational log(P))” value was 0.943.

Regarding `NCCCC[C@H](N)C(=O)O` [Lysine], the “Hydrophobicity (scaled computational log(P))” value in series [1] is on record as 0.283.

In the case of `CSCC[C@H](N)C(=O)O` [Methionine], in series [1], the “Hydrophobicity (scaled computational log(P))” value is given as 0.738.

On to `N[C@@H](Cc1ccccc1)C(=O)O` [Phenylalanine], for which the “Hydrophobicity (scaled computational log(P))” value in series [1] is recorded as 1.00.

As to `O=C(O)[C@@H]1CCCN1` [Proline], the “Hydrophobicity (scaled computational log(P))” value in series [1] was 0.711.

Consider `CC[C@H](C)[C@H](NC(=O)[C@H](C)NC(=O)[C@H](C)NC(=O)[C@@H](NC(=O)[C@H](Cc1c[nH]c2ccccc12)NC(=O)[C@H](CCC(=O)O)NC(=O)[C@H](CCC(=O)O)NC(=O)[C@H](CC(C)C)NC(=O)[C@H](CCCCN)NC(=O)[C@H](CO)NC(=O)[C@H](CCCNC(N)=O)NC(=O)[C@@H](NC(=O)[C@@H](N)CCC(=O)O)C(C)C)[C@@H](C)CC)C(=O)N[C@@H](CCCNC(N)=O)C(=O)N[C@@H](CCC(=O)O)C(=O)N[C@H](C(=O)N[C@@H](C)C(=O)N[C@@H](CCC(=O)O)C(=O)N[C@@H](CCC(=O)O)C(=O)N[C@H](C(=O)N[C@@H](CC(C)C)C(=O)N[C@@H](C)C(=O)N[C@@H](CCCNC(=N)N)C(=O)N[C@@H](CC(C)C)C(=O)N[C@@H](CCCCN)C(=O)N[C@@H](CO)C(=O)O)[C@@H](C)CC)[C@@H](C)CC` [T6991-2, EVC*SKLEEWIAAIC*EIAEEILARLKS (SEQ ID NO:3)] (H-EV[Cit]SKLEEWIAAI[Cit]EIAEEILARLKS-OH), for which the “muscle toxicity (plasma CPK activity)” value in the series with C57Bl/6 mice (setting [4]) is “little or no cytotoxic properties”.

As to `C[C@@H](O)[C@H](N)C(=O)O` [Threonine], the “Hydrophobicity (scaled computational log(P))” value in series [1] is 0.450.

Consider `N[C@@H](Cc1c[nH]c2ccccc12)C(=O)O` [Tryptophan], for which the “Hydrophobicity (scaled computational log(P))” value in series [1] was 0.878.

On to `N[C@@H](Cc1ccc(O)cc1)C(=O)O` [Tyrosine], for which the “Hydrophobicity (scaled computational log(P))” value in series [1] is 0.880.

For the molecule `CC(C)[C@H](N)C(=O)O` [Valine], the “Hydrophobicity (scaled computational log(P))” value in series [1] is reported as 0.825.

Regarding EARSKAEEWLAALLELAEELLARAKS [T5211-2], the “cytotoxic/toxic response (plasma CPK, ALT, AST)” value (“cytotoxic/toxic response” below) in the series with C57Bl/6 mice (setting [4]) is given as “little or no toxic responses”.

Regarding EARSKAEEWLAALRELAEELLARAKS [T5505-12], in the series on C57Bl/6 mice (setting [4]), the “TG elevating effects (plasma TG)” value is recorded as “greatly ablated” and the “cytotoxic/toxic response” value is given as “low toxicity”.

EVKSKLEEWFAAFKEFAEEFLAKLKS [T5594-5]: the “cytotoxic/toxic response” value in the series on C57Bl/6 mice (setting [4]) was “displayed cytotoxic and TG elevating activity”.

Regarding EVNSKLEEWLAALNELAEELLARLKS [T5766-4], the “muscle toxicity (plasma CPK activity)” value in the series on C57Bl/6 mice (setting [4]) was “greatly reduced”.

Consider EVQSKLEEWLAALQELAEELLARLKS [T5766-3], for which the “muscle toxicity (plasma CPK activity)” value in the series on C57Bl/6 mice (setting [4]) was “greatly reduced”.

On to EVRSKLEEWFAAFREFAEEFLARL [T5766-5], for which, in the series on C57Bl/6 mice (setting [4]), the “cytotoxic/toxic response” value was “reduce the toxic responses” and the “muscle toxicity (plasma CPK activity)” value is “greatly reduced muscle toxicity”.

With EVRSKLEEWFAAFREFAEEFLARLNS [T5594-4], in the series on C57Bl/6 mice (setting [4]), the “muscle toxicity (plasma CPK activity)” value is on record as “greatly reduced muscle toxicity”.

EVRSKLEEWIAAIREIAEEILARLKS [T6991-1]: the “muscle toxicity (plasma CPK activity)” value with C57Bl/6 mice (setting [4]) is given as “little or no cytotoxic properties”.

As for EVRSKLEEWLAALRELAEELAARLKS [T4883-7], in the series on C57Bl/6 mice (setting [4]), the “TG elevating effects (plasma TG)” value is listed as “further reduced”; the “cytotoxic/toxic response” value is listed as “further reduced cytotoxic response”; the “muscle toxicity (plasma CPK activity)” value is “eliminate the residual muscle toxicity”.

For the molecule EVRSKLEEWLAALRELAEELLARAKS [T4883-6], in the series with C57Bl/6 mice (setting [4]), the “TG elevating effects (plasma TG)” value was “further reduced”; the “cytotoxic/toxic response” value is given as “further reduced cytotoxic response”; the “muscle toxicity (plasma CPK activity)” value is on record as “eliminate the residual muscle toxicity”.

As to EVRSKLEEWLAALRELAEELLARLKS [T5055-13], the “plasma TG, total and unesterified (free) cholesterol (FC)” value in the series on C57Bl/6 mice (C57Bl/6 mice, 300 mg/kg, 4 and 6 h post treatment) is given as “greatly attenuated”. The “muscle toxicity (plasma CPK activity)” value with C57Bl/6 mice (setting [4]) is listed as “residual toxicity”.

EVRSKLQEWFAAFREFAQEFLARLKS [T5554-1]: in the series on C57Bl/6 mice (setting [4]), the “cytotoxic/toxic response” value is “large increase in the toxic response”.

In the case of “T5505-9: ATI-5261 analog with L24A; W9L substitutions (EVRSKLEELLAALRELAEELLARAKS; synthetic amphipathic alpha-helix cholesterol efflux peptide T5505-9, LeuATI-5261 analog)”, in the series with ABCA1 [2], the “efficiency of stimulating cholesterol efflux (concentration dependence)” value is reported as “high efficiency”, the “Km for cholesterol efflux” value worked out at 0.58 µg/mL and the “peptide concentration at saturation in cholesterol efflux” value is roughly 3 µg/mL. Besides, in the series on C57Bl/6 mice (setting [4]), the “TG elevating effects (plasma TG)” value was “markedly reduced”; the “plasma ALT and/or AST (general, hepatic toxicity)” value is listed as “markedly reduced”; the “muscle toxicity (plasma CPK activity)” value is recorded as “markedly reduced”.

As for “T5554-4: E→Q analog carrying the favorable citrulline substitutions (EV[Cit]SKLQEWFAAFREFAEEFLARLKS)”, the “cytotoxic/toxic response” value in the series on C57Bl/6 mice (setting [4]) is “retained strong toxic (CPK, ALT, and AST) and TG elevating responses”.

Consider “T5554-5: E→Q analog carrying the favorable citrulline substitutions, net-charge −1 (EV[Cit]SKLQEWFAAF[Cit]EFAQEFLARLKS)”, for which, in the series with C57Bl/6 mice (setting [4]), the “cytotoxic/toxic response” value was “retained strong toxic (CPK, ALT, and AST) and TG elevating responses”.

On to “T6275-5: citrulline form of LeuATI-5261 with single citrulline14→L substitution (EV[Cit]SKLEEWLAALLELAEELLARLKS)”, for which, in the series with ABCA1 [2], the “efficiency of stimulating cholesterol efflux (concentration dependence)” value is “highly efficient manner”, the “Km for cholesterol efflux” value is reported as “low Km” and the “peptide concentration at saturation in cholesterol efflux” value is 3 µg/mL.

In the case of “Y26 form of CS6253: CS6253 with a S26→Y substitution to facilitate labeling with 125I (SEQ ID NO:87) (EV[Cit]SKLEEWLAAL[Cit]ELAEELLARLKY)”, the “ABCA1-dependent cholesterol efflux activity” value with ABCA1 [3] (J774 macrophages with/without cAMP, peptide 10 μg/ml) is “mediating high-levels of cholesterol efflux”.

As for “apoA-I: Apolipoprotein A-I, native apolipoprotein used lipid-free as cholesterol efflux acceptor”, the ABCA1-dependent cholesterol efflux entry with ABCA1 [3] was “High-levels of cholesterol efflux”.

“apoE: Apolipoprotein E, native apolipoprotein used lipid-free as cholesterol efflux acceptor”: the ABCA1-dependent cholesterol efflux result with ABCA1 [3] is “High-levels of cholesterol efflux”.

Values taken from US9416162B2, “Peptides having reduced toxicity that stimulate cholesterol efflux” (The Regents of the University of California, priority 2013, dated 2016).
